In patent US8309599B2, “Synthesis of FR901464 and analogs with antitumor activity” (University of Pittsburgh-Of The Commonwealth System of …, priority 2006, dated 2012):
Where two headings read alike, the source gives them in different places.

Columns and labels:
[1] = test system: A549; format: cell-based; settings: Homo sapiens; A549, 3 to 5 days
[2] = test system: MDA-MB-231; format: cell-based; settings: Homo sapiens; MDA-MB-231, 3 to 5 days
[3] = test system: H1299; format: cell-based; settings: Homo sapiens, NCI-H1299; H1299, 3 to 5 days
[4] = test system: HeLa; format: cell-based; settings: Homo sapiens, 3 to 5 days
[5] = test system: MCF-7; assay: cells; settings: Homo sapiens, MCF7
[6] = test system: DU145; format: cell-based; settings: Homo sapiens, DU-145; DU145, 3 to 5 days
[7] = test system: HCT116; format: cell-based; settings: Homo sapiens, HCT-116; HCT116, 3 to 5 days
[8] = test system: PC-3; format: cell-based; settings: Homo sapiens; PC-3, 3 to 5 days
[9] = test system: HeLa cells; assay: High-content analysis of mitotic arrest and microtubule perturbation; format: cell-based; settings: HeLa cells treated for 21 h
[10] = test system: DC3F transformed Chinese hamster cells; assay: Antiproliferative activity in parental cells; format: cell-based; settings: for GI50: Cricetulus griseus, DC3F, read-out: average GI50 DC3F; for growth inhibition of parental DC3F cells: in words
[11] = test system: MCF-7 cells; settings: read-out: LC50 (apparent apoptosis); cited from earlier work
[12] = test system: mRNA levels of p53, p21, c-myc, and E2F-1; settings: MCF-7 cells at 20 nM; cited from earlier work
[13] = mouse model; cited from earlier work
[14] = test system: MCF-7 cells; assay: MCF-7 cell count with hemacytometer and trypan blue; settings: for viability at 0.01 µM: Homo sapiens; for percent of cells present: 200 nM positive control
Method: MCF-7 cells were used in this experiment.
Cell proliferation was measured by manual counting using a hemacytometer by trypsinizing and staining with trypan blue.

[15] = test system: MCF-7; settings: MCF-7, 5-day assay
[16] = test system: A549 cells; assay: Reversibility test (drug washout, MTS); format: cell-based; settings: 1 nM, washout at intervals, read at 72 h
Method: (§1) One concentration was used in each experiment for all times examined. […] At the desired time intervals, the media containing the drug was removed, the wells were washed 5 times with new media and 200 μL of new media containing 1% DMSO was added.
(§2) All cells were treated at the same time meayamycin at 1 nM concentration. At the given time interval, the drug-containing media was removed and replaced with fresh media. Cell proliferation was measured at the last time interval (72 h).

[17] = test system: HeLa cells; assay: Reversibility test (drug washout, MTS); format: cell-based; settings: preliminary result
Method: as §1, §2

[18] = test system: MCF-7 cells; assay: Reversibility test (drug washout, MTS); format: cell-based; settings: 1 nM, washout at intervals, read at 72 h
Method: as §1, §2

[19] = test system: multidrug resistant subline VCRd5L; assay: Antiproliferative activity in multidrug resistant cells; format: cell-based, Chinese hamster; settings: for GI50: Cricetulus griseus, read-out: average GI50 VCRd5L
[20] = test system: A-549 lung cancer cells; assay: High-content selectivity study, cancer cells
[21] = test system: IMR-90 human lung fibroblasts; assay: High-content selectivity study, normal cells
[22] = MCF7, 24 h, read-out: Percent Viable Cells, 10 nM, 24 hours
[23] = MCF7, 48 h, read-out: Percent Viable Cells, 10 nM, 48 hours

CC(/C=C/[C@H]1OC(C)(C)C[C@@]2(CO2)[C@@H]1O)=C\C[C@@H]1O[C@H](C)[C@H](NC(=O)/C=C\[C@H](C)O)C[C@@H]1C [4′-desacetyl meayamycin]
GI50 [1]: 0.74 nM
GI50 [2]: 0.35 nM
GI50 [3]: 1 nM
GI50 [4]: 1 nM
GI50 [5]: 0.48 nM

CC(=O)O[C@@H](C)/C=C\C(=O)N[C@@H]1CC[C@H](C/C=C(C)/C=C/[C@H]2OC(C)(C)C[C@@]3(CO3)[C@@H]2O)O[C@@H]1C [12-desmethyl meayamycin]
GI50 [1]: 1 nM
GI50 [6]: 3.5 nM
GI50 [7]: 2.2 nM
GI50 [2]: 0.7 nM
GI50 [3]: 2.8 nM
GI50 [8]: 1.6 nM
GI50 [5]: 0.3 nM

CC(=O)O[C@@H](C)/C=C\C(=O)N[C@@H]1C[C@H](C)[C@H](C/C=C(C)/C=C/[C@H]2O[C@](C)(O)C[C@@]3(CO3)[C@@H]2O)O[C@@H]1C [FR901464]
mitotic arrest [9]: neither FR 901464 nor meayamycin were mitotic arresters
GI50 [10]: 7.49 ± 1.26 nM
growth inhibition of parental DC3F cells [10]: potently inhibited the growth
CC50 [11]: 0.5 nM
mRNA levels of p53, p21, c-myc, and E2F-1 [12]: lowers the mRNA levels
antitumor activity, active dose [13]: 0.056 to 0.18 mg/kg
viability at 0.01 µM [14, 22]: 81%
viability at 0.01 µM [14, 23]: 49%

CC(=O)O[C@@H](C)/C=C\C(=O)N[C@@H]1CO[C@H](C/C=C(C)/C=C/[C@H]2OC(C)(C)C[C@@]3(CO3)[C@@H]2O)O[C@@H]1C [acetal meayamycin]
GI50 [5]: 2.5 nM

CC(/C=C/[C@H]1OC(C)(C)C[C@@]2(CO2)[C@@H]1O)=C\C[C@@H]1O[C@H](C)[C@H](NC(=O)/C=C\[C@H](C)OC(=O)N2CCOCC2)C[C@@H]1C [meayamycin B, (2Z,4S)-4-[(morpholinylcarbonyl)oxy]-N-[(2R,3R,5S,6S)-tetrahydro-6-[(2E,4E)-5-[(3R,4R,5R)-4-hydroxy-7,7-dimethyl-1,6-dioxaspiro[2.5]oct-5-yl]-3-methyl-2,4-pentadien-1-yl]-2,5-dimethyl-2H-pyran-3-yl]-2-pentenamide]
times more potent than meayamycin in cultured cells [15]: 2 times

CC(=O)O[C@@H](C)/C=C\C(=O)N[C@@H]1C[C@H](C)[C@H](C/C=C(C)/C=C/[C@H]2OC(C)(C)C[C@@]3(CO3)[C@@H]2O)O[C@@H]1C [meayamycin]
GI50 [1]: 0.11 nM
GI50 [6]: 0.47 nM
GI50 [7]: 0.044 nM
GI50 [2]: 0.024 nM
GI50 [3]: 0.091 nM
GI50 [8]: 0.058 nM
GI50 [4]: 0.24 nM
reversibility of growth inhibition [16]: irreversibly inhibits the growth
reversibility of growth inhibition [17]: reversibly inhibits the growth
reversibility of growth inhibition [18]: irreversibly inhibits the growth
mitotic arrest [9]: neither FR 901464 nor meayamycin were mitotic arresters
GI50 [10]: 0.46 ± 0.09 nM
growth inhibition of parental DC3F cells [10]: active in the subnanomolar range
activity in the multidrug resistant cells [19]: retained picomolar activity
fold resistance [19]: 1.5 fold
GI50 [19]: 0.71 ± 0.27 nM
GI50 [5]: 0.01 nM
cell loss ([20]; 10 nM, 24 hours, compared with normal cells): more pronounced cell loss
nuclear morphology ([20]; 24 h): did not cause nuclear fragmentation but instead enlarged nuclei
p53 induction ([20]; 24 h): p53 induction
caspase cleavage ([20]; 24 h, some experiments): low level of caspase cleavage
growth inhibition of A549 cells ([20]; FIG. 4): inhibits the growth of A549 cells
p53 induction ([21]; 24 h): magnitude of response was smaller
growth inhibition of normal lung cells (IMR-90) ([21]; FIG. 5): only mildly
Percent Viable Cells ([14]; 10 nM, 48 hours, listed as Compound IX, 0.01 µM): 26%
viability at 0.01 µM [14, 22]: 46%
viability at 0.01 µM [14, 23]: 27%

CC(=O)O[C@H]1C(=O)[C@@]2(C)[C@H]([C@H](OC(=O)c3ccccc3)[C@]3(O)C[C@H](OC(=O)[C@H](O)[C@@H](NC(=O)c4ccccc4)c4ccccc4)C(C)=C1C3(C)C)[C@]1(OC(C)=O)CO[C@@H]1C[C@@H]2O [paclitaxel]
mitotic arrest [9]: caused mitotic arrest
GI50 ([10]; average ± SD (n)): 45.4 ± 11.3 nM
fold resistant (VCRd-5L cells) [19]: 60 fold
GI50 ([19]; average ± SD (n)): 2680 ± 109 nM
percent of cells present ([14]; 24 hour): 70%
percent of cells present ([14]; 48 hour): 52%

CC[C@]1(O)C[C@H]2CN(CCc3c([nH]c4ccccc34)[C@@](C(=O)OC)(c3cc4c(cc3OC)N(C=O)[C@H]3[C@@](O)(C(=O)OC)[C@H](OC(C)=O)[C@]5(CC)C=CCN6CC[C@]43[C@@H]65)C2)C1 [vincristine]
mitotic arrest [9]: caused mitotic arrest
GI50 ([10]; average ± SD (n)): 18.8 ± 16.2 nM
fold resistant (VCRd-5L cells) [19]: > 250 fold
GI50 ([19]; average ± SD (n)): > 5000 nM
